The values below are quoted from earlier work in patent US20050272714A1, “Use of targeted oxidative therapeutic formulation in treatment of diabetes and obesity” (priority 2004, published 2005).

The structures appear in SMILES notation.

The subject of data set [1] is peroxide-sensitive E. coli. To be noted: infused into the blood of infected rabbits.
A further data set concerns E. coli. To be noted: increasing concentration ex-vivo in rabbit or human blood.

For `OO` [hydrogen peroxide], the bactericidal effect result in data set [1] was “no bactericidal effect”. For the same compound, the direct bactericidal activity entry in the data set with E. coli was “no evidence of direct bactericidal activity”.
